Assay results: US20140011870A1, “Methods of Treating Obesity Using an Effective Dose of a METAP-2 Inhibitor” (Zafgen, Inc., priority 2010, published 2014)

Key:
[1] = Body weight in obese patients, twice weekly intravenous administration (clinical trial); format: in vivo, human; settings: for Dose at which weight loss efficacy is obtained: administered twice weekly
Method: Obese patients were treated in three cohorts with intravenous administration of a formulation of the compound 6-O-(4-dimethylaminoethoxy)cinnamoyl fumagillol oxalate. The compound was intravenously administered to each patient of a cohort (except for a placebo cohort) twice weekly for at least 26 days. Each of patients in the three non-placebo cohorts received either 0.1 mg/m^2 (cohort 1); 0.3 mg/m^2 (cohort 2); or 0.9 mg/m^2 (cohort 3) doses of the compound at the time of administration. The trial was conducted under the appropriate government and medical supervision. […] Table 1 summarizes body weight determination of the 9 patients in the 0.9 mg/m^2 cohort on the day of the first dose and prior to a second dose administered four days later. […] FIG. 1 depicts the body weight change (loss) as a percent before each administration of the biweekly dose for the 0.9 mg/m^2 cohort. FIG. 2 depicts the Visual Analog Scale reports of hunger decline about 50% following successive biweekly dose administration for the 0.9 mg/m^2 cohort. […] All of the subjects of the trial described in Example 1 received doses ranging from 1.8 to 2.2 mg with each administration (given twice weekly). However, weight change of was not strictly associated with dose delivered. Instead, response was strongly associated with dose administered per unit excess body weight, as compared to weight change associated with dose delivered per unit body weight.

[2] = human, in vivo
Method: (§1) Obese patients were treated in three cohorts with intravenous administration of a formulation of the compound 6-O-(4-dimethylaminoethoxy)cinnamoyl fumagillol oxalate. The compound was intravenously administered to each patient of a cohort (except for a placebo cohort) twice weekly for at least 26 days. Each of patients in the three non-placebo cohorts received either 0.1 mg/m^2 (cohort 1); 0.3 mg/m^2 (cohort 2); or 0.9 mg/m^2 (cohort 3) doses of the compound at the time of administration. The trial was conducted under the appropriate government and medical supervision.
Table 1 summarizes body weight determination of the 9 patients in the 0.9 mg/m^2 cohort on the day of the first dose and prior to a second dose administered four days later.
There was a significant correlation between weight loss of patients and maintained exposure of 0.02 ng/mL of the drug above the level of quantitation of the assay 24 hours after dosing, as shown in FIG. 4 (circled data point is exposure of one poor responder below the level of quantitation of assay). The PK profile at day 26 is representative of steady state (see FIG. 5).

[3] = Visual Analog Scale reports of hunger in obese patients; format: in vivo, human; settings: successive biweekly dose administration, 0.9 mg/m^2 cohort
Method: FIG. 2 depicts VAS reports of hunger decline by approximately 50% with body weight change (percent) with biweekly dosing of f 0.1 mg/m^2, 0.3 mg/m^2, and 0.9 mg/m^2 (approximately 1.8 to 2.1 mg) of 6-O-(4-dimethylaminoethoxy)cinnamoyl fumagillol in human patients. Values are means (n=6 per dose level) of changes in fasted Visual Analog Scale scores for each visit day vs. Day 1 for population; p values derived from 2-way ANOVA with Bonferroni post-test comparisons (*, p<0.05; **, p<0.01 vs. placebo). Obese patients were treated in three cohorts with intravenous administration of a formulation of the compound 6-O-(4-dimethylaminoethoxy)cinnamoyl fumagillol oxalate. The compound was intravenously administered to each patient of a cohort (except for a placebo cohort) twice weekly for at least 26 days. Each of patients in the three non-placebo cohorts received either 0.1 mg/m^2 (cohort 1); 0.3 mg/m^2 (cohort 2); or 0.9 mg/m^2 (cohort 3) doses of the compound at the time of administration. The trial was conducted under the appropriate government and medical supervision. […] FIG. 1 depicts the body weight change (loss) as a percent before each administration of the biweekly dose for the 0.9 mg/m^2 cohort. FIG. 2 depicts the Visual Analog Scale reports of hunger decline about 50% following successive biweekly dose administration for the 0.9 mg/m^2 cohort.

adiponectin = test: Adiponectin levels in the serum of patients undergoing the trial; format: in vivo, human; settings: with treatment
Method: as §1, with “supervision. Levels of adiponectin in the serum of patients undergoing the trial were also measured.” for “supervision.”

[4] = listed as 6-O-(4-dimethylaminoethoxy)cinnamoyl fumagillol

Drug exposure at 24 hours post dose correlated with weight loss [2]: above 0.02 ng/mL
terminal half life of the drug ([2]; iv): 5.4 h
Structure (SMILES): CO[C@@H]1[C@H](OC(=O)/C=C/c2ccc(OCCN(C)C)cc2)CC[C@]2(CO2)[C@H]1[C@@]1(C)O[C@@H]1CC=C(C)C.O=C(O)C(=O)O [6-O-(4-dimethylaminoethoxy)cinnamoyl fumagillol oxalate]
Weight loss efficacy at low doses ([1]; 0.1 and 0.3 mg/m^2, twice weekly): Lack of efficacy
body weight loss over 26 days of exposure ([1]; 7 of the 9 subjects treated at 0.9 mg/m^2, twice weekly): 3-4%
Dose at which weight loss efficacy is obtained [1]: ≥ 0.02 mg/kg
Dose at which weight loss efficacy is obtained [1, 4]: ~0.02 mg/kg
Dose per kg of excess body weight needed to see effects ([1]; obese patients, twice weekly): > 40 μg of drug per kg of excess body weight
Visual Analog Scale reports of hunger decline [3]: about 50%
Visual Analog Scale reports of hunger decline [3, 4]: approximately 50%
Increase in adiponectin concentrations (adiponectin): over 60%
